% of control, % of inhibition and IC50 data for five compounds are collected here from ChEMBL document CHEMBL5465560, “Selectivity Literature for EUbOPEN Chemogenomic Library” (2024).

For assay [1], the target named is T1, Mitogen-activated protein kinase 13 (Homo sapiens) (UniProt O15264).
T1 sequence (whole entry): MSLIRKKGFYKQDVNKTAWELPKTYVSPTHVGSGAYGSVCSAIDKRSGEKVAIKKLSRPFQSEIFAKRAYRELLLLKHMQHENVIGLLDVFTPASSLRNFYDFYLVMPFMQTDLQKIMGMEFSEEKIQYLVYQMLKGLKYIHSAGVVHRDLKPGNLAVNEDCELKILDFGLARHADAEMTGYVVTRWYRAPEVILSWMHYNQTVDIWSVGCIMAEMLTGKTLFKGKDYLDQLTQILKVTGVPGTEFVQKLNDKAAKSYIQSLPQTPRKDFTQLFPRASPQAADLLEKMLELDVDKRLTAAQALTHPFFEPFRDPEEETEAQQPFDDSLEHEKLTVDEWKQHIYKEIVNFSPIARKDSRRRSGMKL
Put plainly: Selectivity interaction (KinomeScan (DiscoverX)) EUB0000666a MAPK13. As to conditions: at 10 µM.

In assay [2] the target is T2, Ephrin type-B receptor 3 (Homo sapiens) (UniProt P54753).
T2 sequence (whole entry): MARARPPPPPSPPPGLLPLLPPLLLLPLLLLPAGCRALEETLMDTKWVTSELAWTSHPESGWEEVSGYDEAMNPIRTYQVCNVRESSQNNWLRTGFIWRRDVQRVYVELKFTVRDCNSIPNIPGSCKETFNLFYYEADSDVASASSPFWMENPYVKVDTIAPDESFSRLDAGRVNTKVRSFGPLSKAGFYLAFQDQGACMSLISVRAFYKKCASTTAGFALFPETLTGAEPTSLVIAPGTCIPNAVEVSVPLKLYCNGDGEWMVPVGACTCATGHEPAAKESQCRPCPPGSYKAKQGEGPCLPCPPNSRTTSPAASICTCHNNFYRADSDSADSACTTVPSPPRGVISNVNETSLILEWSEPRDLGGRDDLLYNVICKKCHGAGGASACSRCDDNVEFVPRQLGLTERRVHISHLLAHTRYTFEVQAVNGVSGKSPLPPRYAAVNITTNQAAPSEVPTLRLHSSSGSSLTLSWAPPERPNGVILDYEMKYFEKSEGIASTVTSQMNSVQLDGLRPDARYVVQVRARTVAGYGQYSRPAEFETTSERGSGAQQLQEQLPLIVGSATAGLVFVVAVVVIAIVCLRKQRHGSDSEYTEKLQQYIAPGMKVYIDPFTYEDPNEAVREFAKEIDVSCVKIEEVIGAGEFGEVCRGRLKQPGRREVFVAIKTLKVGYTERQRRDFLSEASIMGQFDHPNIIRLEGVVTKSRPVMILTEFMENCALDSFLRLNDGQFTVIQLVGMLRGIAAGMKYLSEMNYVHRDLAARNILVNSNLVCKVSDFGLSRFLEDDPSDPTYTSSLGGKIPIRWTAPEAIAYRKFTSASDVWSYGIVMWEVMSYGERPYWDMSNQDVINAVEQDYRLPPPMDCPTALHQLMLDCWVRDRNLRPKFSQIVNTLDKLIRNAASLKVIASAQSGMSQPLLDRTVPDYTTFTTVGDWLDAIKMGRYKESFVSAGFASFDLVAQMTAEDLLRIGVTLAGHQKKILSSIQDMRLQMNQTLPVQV
The assay is described as follows: Selectivity interaction (Kinase panel (Invitrogen)) EUB0000639a EPHB3. Particulars: at 200 nM.

The target of assay [3] is Platelet-derived growth factor receptor alpha (Homo sapiens, UniProt P16234). The assay is described as follows: Selectivity interaction (Kinase panel (33PanQinase(R) Activity Assay)) EUB0000877a PDGFRA.
In assay [4] the target is T3, Peripheral plasma membrane protein CASK (Homo sapiens) (UniProt O14936).
T3 sequence (whole entry): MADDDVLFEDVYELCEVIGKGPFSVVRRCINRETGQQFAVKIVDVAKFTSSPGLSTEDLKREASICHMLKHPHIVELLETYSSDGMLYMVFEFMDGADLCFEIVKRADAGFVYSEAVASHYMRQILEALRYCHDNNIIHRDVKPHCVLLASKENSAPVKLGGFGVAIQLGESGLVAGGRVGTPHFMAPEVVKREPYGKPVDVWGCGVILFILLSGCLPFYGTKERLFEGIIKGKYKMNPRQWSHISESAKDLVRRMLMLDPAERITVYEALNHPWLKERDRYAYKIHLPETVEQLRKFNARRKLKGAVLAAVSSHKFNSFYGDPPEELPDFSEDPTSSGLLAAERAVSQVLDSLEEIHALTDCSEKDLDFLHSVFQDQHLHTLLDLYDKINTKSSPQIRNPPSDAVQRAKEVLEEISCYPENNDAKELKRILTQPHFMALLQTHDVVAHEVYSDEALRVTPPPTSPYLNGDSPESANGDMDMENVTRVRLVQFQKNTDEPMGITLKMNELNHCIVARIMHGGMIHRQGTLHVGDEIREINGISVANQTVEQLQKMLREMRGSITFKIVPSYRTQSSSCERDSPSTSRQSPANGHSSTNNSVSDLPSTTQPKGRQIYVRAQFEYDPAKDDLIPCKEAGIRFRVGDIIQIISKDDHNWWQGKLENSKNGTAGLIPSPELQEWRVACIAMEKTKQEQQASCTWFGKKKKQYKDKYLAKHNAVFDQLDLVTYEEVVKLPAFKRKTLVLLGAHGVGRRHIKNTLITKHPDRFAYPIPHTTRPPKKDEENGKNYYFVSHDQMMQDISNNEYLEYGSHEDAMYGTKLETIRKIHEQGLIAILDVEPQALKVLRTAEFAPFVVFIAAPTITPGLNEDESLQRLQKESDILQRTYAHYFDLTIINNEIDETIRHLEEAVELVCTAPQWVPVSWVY
The assay is described as follows: Selectivity interaction (KinomeScan (DiscoverX)) EUB0000595a CASK. Particulars: at 10 µM.

In assay [5] the target is Cyclin-dependent kinase 1 (Homo sapiens) (UniProt P06493). Put plainly: Selectivity interaction (ActivX KiNativ screen (ex vivo kinase selectivity in human PBMCs)) EUB0001619a CDK1. In kind it is cell-based. Particulars: PBMC, at 1 µM.
Sequence of Cyclin-dependent kinase 1 (Homo sapiens) (P06493 whole entry, looked up): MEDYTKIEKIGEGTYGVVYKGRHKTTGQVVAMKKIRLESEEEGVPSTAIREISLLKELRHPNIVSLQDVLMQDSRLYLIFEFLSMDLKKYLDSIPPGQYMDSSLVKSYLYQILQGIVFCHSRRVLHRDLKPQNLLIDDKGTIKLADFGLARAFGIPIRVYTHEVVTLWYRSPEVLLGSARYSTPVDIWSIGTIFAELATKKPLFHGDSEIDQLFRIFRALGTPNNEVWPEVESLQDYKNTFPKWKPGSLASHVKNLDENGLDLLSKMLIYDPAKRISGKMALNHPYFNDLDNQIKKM

Sequence of Platelet-derived growth factor receptor alpha (P16234 whole entry): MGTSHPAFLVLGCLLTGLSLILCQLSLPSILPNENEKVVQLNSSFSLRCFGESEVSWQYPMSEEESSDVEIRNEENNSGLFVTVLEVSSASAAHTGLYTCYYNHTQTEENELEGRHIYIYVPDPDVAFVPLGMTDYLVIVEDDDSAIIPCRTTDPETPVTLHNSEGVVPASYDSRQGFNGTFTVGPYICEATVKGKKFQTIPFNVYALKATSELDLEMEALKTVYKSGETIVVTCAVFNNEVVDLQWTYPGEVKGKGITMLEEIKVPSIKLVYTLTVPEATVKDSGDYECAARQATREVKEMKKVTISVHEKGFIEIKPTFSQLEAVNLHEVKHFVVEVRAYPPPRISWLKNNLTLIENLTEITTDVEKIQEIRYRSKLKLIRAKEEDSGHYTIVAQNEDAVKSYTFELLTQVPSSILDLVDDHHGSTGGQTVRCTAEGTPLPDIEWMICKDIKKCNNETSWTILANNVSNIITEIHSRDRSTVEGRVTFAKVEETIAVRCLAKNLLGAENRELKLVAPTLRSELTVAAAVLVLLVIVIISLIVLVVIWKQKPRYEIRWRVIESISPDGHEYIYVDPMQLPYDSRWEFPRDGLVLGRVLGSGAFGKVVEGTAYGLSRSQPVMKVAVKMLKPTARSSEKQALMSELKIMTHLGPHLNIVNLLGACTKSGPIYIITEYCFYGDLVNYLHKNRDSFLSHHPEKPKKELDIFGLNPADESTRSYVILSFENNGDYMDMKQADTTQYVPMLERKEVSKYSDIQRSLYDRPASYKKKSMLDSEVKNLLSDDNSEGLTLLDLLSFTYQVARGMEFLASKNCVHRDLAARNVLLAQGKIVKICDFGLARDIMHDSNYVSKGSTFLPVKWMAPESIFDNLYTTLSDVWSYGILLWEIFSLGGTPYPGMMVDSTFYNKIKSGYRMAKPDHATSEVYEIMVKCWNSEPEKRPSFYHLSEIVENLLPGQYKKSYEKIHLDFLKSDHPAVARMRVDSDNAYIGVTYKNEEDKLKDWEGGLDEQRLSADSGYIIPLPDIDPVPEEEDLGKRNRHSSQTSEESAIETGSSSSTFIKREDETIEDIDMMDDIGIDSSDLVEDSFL

In the case of `O=C(NOC[C@H](O)CO)c1ccc(F)c(F)c1Nc1ccc(I)cc1F`, the % of control in assay [1] amounted to 6.1%. In assay [2], `CC[C@@H]1[C@H](F)C(=O)N[C@@H]1COc1nccc2cc(C(N)=O)c(OC)cc12` [ZIMLOVISERTIB] had a % of inhibition of 4.83%. `CCC(=O)N1CC[C@H](Nc2ncnc3c2CN(c2cnc(OC)c(C(F)(F)F)c2)CC3)C1` [LENIOLISIB] registered an IC50 in assay [3] greater than 10 µM.

For the compound `COCC(=O)NC/C=C/c1ccc2ncnc(Nc3ccc(Oc4ccc(C)nc4)c(C)c3)c2c1` [CP-724714], the % of control in assay [4] amounted to 100%. `N#Cc1cccc(-c2c[nH]c3ncnc(N4CCOCC4)c23)c1` yielded a % of inhibition in assay [5] of 13%.

In general, IC50 refers to the concentration that inhibits the measured activity by half. High values mean weaker potency in that assay, low ones greater potency in that assay.
